Assay results taken from patent US5556744A, “Methods and compositions for diagnosing and treating certain HIV infected patients” (The Trustees of the University of Pennsylvania, priority 1994, dated 1996).

What was measured:
[1] = system: HIV-1; conditions: antisera (animals); cited from earlier work
[2] = system: maternal HIV+ sera (antibodies); test: RIA / ELISA binding of maternal HIV+ sera to gp120 and gp41 peptides (Example 3); set-up: species or system human
Procedure, shortened: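 Maternal sera, diluted 1:50 and 1:500, were bound overnight at 4°C to peptides immobilized at 10 μg/ml (pH 9.6 carbonate) and blocked with 1% BSA. Read-out was ¹²⁵I-labelled anti-human IgG counts or HRP-TMB OD450. Signal with peptide minus without was expressed relative to seronegative serum.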

[3] = system: maternal serum samples (antibodies); test: ELISA peptide-binding of maternal sera, expanded peptide collection (Example 5); set-up: species or system human; conditions: Example 5
Procedure, shortened: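 Maternal sera diluted 1:50 or 1:500 in 1% BSA/PBS/0.05% Tween 20 were tested by ELISA on 10 μg/mL HIV IIIB gp120/gp41 peptides (~18 residues, ≥85% pure). Binding scored positive at experimental/control OD450nm ratio ≥2; HIV-seronegative human sera served as controls.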

[4] = system: maternal sera (antibodies); test: ELISA peptide-binding of maternal sera (Example 6); set-up: species or system human
Procedure, shortened: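 HIV-1 envelope peptides averaging 16 amino acids, covering external and transmembrane glycoprotein, were probed by ELISA. Third-trimester maternal sera, classed as transmitter or non-transmitter by child diagnosis, were each run on at least 40 peptides. Values give percent of sera binding a peptide.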

## CTKAKRRVVQREKA [Peptide 497]
[1]
  Neutralizing activity of antisera generated to the peptide: do not demonstrate neutralizing activity
[2]; 20 maternal sera
  Number of maternal sera binding to peptide: Sixteen
[2]; Non-transmitter group, n = 13
  Percentage of sera samples demonstrating binding to peptide, non-transmitter: 71%
[2]; Serum No. 1, Non-Transmission Group
  Binding of maternal HIV+ serum to peptide (sera/NHS ratio): - (specific OD450 or cpm of sera sample binding to peptide divided by the specific OD450 or cpm of NHS sample binding to peptide, which value is less than 2)
[2]; Serum No. 2, Non-Transmission Group
  Binding of maternal HIV+ serum to peptide (sera/NHS ratio): ++ (which value is greater than 3)
[2]; Serum No. 3, Non-Transmission Group
  Binding of maternal HIV+ serum to peptide (sera/NHS ratio): ++ (which value is greater than 3)
[2]; Serum No. 4, Transmission Group
  Binding of maternal HIV+ serum to peptide (sera/NHS ratio): ++ (which value is greater than 3)
[2]; Serum No. 5, Transmission Group
  Binding of maternal HIV+ serum to peptide (sera/NHS ratio): + (which value is between 2 to 3)
[2]; Serum No. 6, Non-Transmission Group
  Binding of maternal HIV+ serum to peptide (sera/NHS ratio): + (which value is between 2 to 3)
[2]; Serum No. 7, Non-Transmission Group
  Binding of maternal HIV+ serum to peptide (sera/NHS ratio): - (specific OD450 or cpm of sera sample binding to peptide divided by the specific OD450 or cpm of NHS sample binding to peptide, which value is less than 2)
[2]; Serum No. 8, Non-Transmission Group
  Binding of maternal HIV+ serum to peptide (sera/NHS ratio): ++ (which value is greater than 3)
[2]; Serum No. 9, Non-Transmission Group
  Binding of maternal HIV+ serum to peptide (sera/NHS ratio): ++ (which value is greater than 3)
[2]; Serum No. 10, Transmission Group
  Binding of maternal HIV+ serum to peptide (sera/NHS ratio): + (which value is between 2 to 3)
[2]; Serum No. 11, Non-Transmission Group
  Binding of maternal HIV+ serum to peptide (sera/NHS ratio): ++ (which value is greater than 3)
[2]; Serum No. 12, Non-Transmission Group
  Binding of maternal HIV+ serum to peptide (sera/NHS ratio): - (specific OD450 or cpm of sera sample binding to peptide divided by the specific OD450 or cpm of NHS sample binding to peptide, which value is less than 2)
[2]; Serum No. 13, Transmission Group
  Binding of maternal HIV+ serum to peptide (sera/NHS ratio): - (specific OD450 or cpm of sera sample binding to peptide divided by the specific OD450 or cpm of NHS sample binding to peptide, which value is less than 2)
[2]; Serum No. 14, Transmission Group
  Binding of maternal HIV+ serum to peptide (sera/NHS ratio): - (specific OD450 or cpm of sera sample binding to peptide divided by the specific OD450 or cpm of NHS sample binding to peptide, which value is less than 2)
[2]; Serum No. 15, Transmission Group
  Binding of maternal HIV+ serum to peptide (sera/NHS ratio): ++ (which value is greater than 3)
[2]; Serum No. 16, Non-Transmission Group
  Binding of maternal HIV+ serum to peptide (sera/NHS ratio): ++ (which value is greater than 3)
[2]; Serum No. 17, Non-Transmission Group
  Binding of maternal HIV+ serum to peptide (sera/NHS ratio): ++ (which value is greater than 3)
[2]; Serum No. 18, Non-Transmission Group
  Binding of maternal HIV+ serum to peptide (sera/NHS ratio): + (which value is between 2 to 3)
[2]; Serum No. 19, Transmission Group
  Binding of maternal HIV+ serum to peptide (sera/NHS ratio): + (which value is between 2 to 3)
[2]; Serum No. 20, Non-Transmission Group
  Binding of maternal HIV+ serum to peptide (sera/NHS ratio): + (which value is between 2 to 3)
[2]; Transmitter / transmission group, n = 7
  Percentage of sera samples demonstrating binding to peptide, transmitter: Seventy-seven
[2]; all 20 samples
  Percent of the maternal serum samples that bound to the peptide: 80%
[3]
  Binding / reactivity of maternal sera to peptide (in words): High reactivity but no difference between the two groups
[4]; Non-Transmitters, N = 12
  Number of Non-Transmitters which bound to peptide: 0
  Percent of Non-Transmitters which bound to peptide: 0%
[4]; Transmitters, N = 4
  Number of Transmitters which bound to peptide: 0
  Percent of Transmitters which bound to peptide: 0%
